Read-outs that look alike come from different tables or passages of the source.

Common to all, as to experiment: Kinase selectivity, scanMAX Kinase assay panel (DiscoverX), % control at 1 uM
Holding throughout (assay type): binding

Assay [1] addresses T1, scanMAX Kinase assay panel (Homo sapiens, UniProt P10721, D816V).
T1 construct: purchased DiscoverX
Particulars: KIT (D816V); 1 uM; read-out: Percent Control (%). Put shortly:
(§1)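 Compounds were tested at 1 uM in DMSO against each enzyme in the panel. Percent control was calculated as (compound − positive control)/(negative control − positive control) × 100, and a compound was scored active on a kinase when this value fell below 35.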

Assay [2] concerns the target T2, scanMAX Kinase assay panel (Homo sapiens, UniProt P36888).
T2 construct: purchased DiscoverX
T2 sequence (P36888 27-993): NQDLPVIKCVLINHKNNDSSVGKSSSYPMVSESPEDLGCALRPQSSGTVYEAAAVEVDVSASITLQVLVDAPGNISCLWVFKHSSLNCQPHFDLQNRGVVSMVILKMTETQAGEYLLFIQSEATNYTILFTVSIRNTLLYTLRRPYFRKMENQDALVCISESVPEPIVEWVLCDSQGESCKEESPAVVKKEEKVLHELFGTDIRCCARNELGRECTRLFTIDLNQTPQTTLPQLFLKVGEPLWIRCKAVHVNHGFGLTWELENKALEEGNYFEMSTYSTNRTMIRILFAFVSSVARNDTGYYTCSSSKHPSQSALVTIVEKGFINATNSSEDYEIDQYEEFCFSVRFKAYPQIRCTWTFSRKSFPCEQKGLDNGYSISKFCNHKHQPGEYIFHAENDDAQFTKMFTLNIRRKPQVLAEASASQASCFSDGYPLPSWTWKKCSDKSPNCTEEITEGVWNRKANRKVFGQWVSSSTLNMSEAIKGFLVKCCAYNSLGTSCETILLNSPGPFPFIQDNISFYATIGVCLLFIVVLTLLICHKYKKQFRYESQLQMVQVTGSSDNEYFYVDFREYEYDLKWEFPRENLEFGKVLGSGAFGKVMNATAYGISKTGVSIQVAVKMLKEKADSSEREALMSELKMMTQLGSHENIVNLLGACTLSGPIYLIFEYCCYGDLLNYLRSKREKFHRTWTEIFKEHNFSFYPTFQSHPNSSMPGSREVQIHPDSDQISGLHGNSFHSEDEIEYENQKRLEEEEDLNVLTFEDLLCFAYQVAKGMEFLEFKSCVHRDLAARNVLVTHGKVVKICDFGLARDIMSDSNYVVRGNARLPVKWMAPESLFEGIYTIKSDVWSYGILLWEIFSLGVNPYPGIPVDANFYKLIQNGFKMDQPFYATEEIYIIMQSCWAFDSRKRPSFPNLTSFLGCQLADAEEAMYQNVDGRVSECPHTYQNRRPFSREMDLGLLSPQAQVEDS
Particulars: 1 uM, read-out: Percent Control (%). The method in brief:
as §1

For assay [3], the target named is T3, scanMAX Kinase assay panel (Homo sapiens, UniProt P00519).
T3 construct: purchased DiscoverX
The settings on record: 1 uM, read-out: Percent Control (%). The method in brief: as §1

Assay [4] deals with T4, scanMAX Kinase assay panel (Homo sapiens, UniProt P54760).
T4 construct: purchased DiscoverX
T4 sequence (P54760 16-987): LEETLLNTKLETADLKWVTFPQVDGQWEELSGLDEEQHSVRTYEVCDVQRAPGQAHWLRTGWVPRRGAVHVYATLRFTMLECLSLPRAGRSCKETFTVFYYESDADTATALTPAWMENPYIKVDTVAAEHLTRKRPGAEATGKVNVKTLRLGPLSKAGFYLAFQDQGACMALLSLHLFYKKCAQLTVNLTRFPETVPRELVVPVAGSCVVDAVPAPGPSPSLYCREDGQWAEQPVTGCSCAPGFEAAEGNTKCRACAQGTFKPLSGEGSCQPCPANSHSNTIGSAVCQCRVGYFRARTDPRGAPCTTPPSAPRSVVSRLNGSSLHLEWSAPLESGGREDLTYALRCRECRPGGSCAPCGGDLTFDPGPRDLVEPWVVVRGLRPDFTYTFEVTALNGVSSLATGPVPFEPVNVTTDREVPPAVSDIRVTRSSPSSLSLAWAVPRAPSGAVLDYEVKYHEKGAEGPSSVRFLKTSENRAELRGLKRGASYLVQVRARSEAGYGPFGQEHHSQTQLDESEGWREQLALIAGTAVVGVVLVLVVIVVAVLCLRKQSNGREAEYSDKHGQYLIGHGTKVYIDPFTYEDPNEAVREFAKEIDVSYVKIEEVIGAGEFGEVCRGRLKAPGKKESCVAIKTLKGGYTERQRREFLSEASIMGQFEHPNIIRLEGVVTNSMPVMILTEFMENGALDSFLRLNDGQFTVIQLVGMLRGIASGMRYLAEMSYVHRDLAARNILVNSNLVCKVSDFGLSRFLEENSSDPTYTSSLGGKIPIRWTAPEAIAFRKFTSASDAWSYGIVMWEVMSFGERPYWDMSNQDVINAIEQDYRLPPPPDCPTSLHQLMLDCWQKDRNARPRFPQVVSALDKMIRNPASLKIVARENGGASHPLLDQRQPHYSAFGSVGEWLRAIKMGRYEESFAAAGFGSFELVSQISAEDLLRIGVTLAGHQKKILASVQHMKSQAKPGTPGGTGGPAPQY
Particulars: EPHB4; 1 uM; read-out: Percent Control (%). The method in brief:
as §1

Assay [5] concerns the target T5, scanMAX Kinase assay panel (Homo sapiens, UniProt Q16513).
T5 construct: purchased DiscoverX
The settings on record: PKN2; 1 uM; read-out: Percent Control (%). Put shortly:
as §1

The target of assay [6] is T6, scanMAX Kinase assay panel (Homo sapiens, UniProt Q9HAZ1).
T6 construct: purchased DiscoverX
The settings on record: CLK4; 1 uM; read-out: Percent Control (%). The method in brief: as §1

Assay [7] concerns the target T7, scanMAX Kinase assay panel (Homo sapiens, UniProt P06213).
T7 construct: purchased DiscoverX
Particulars: INSR; 1 uM; read-out: Percent Control (%). Put shortly: as §1

For assay [8], the target named is T8, scanMAX Kinase assay panel (Homo sapiens, UniProt P00533, DEL746-750).
T8 construct: purchased DiscoverX
The settings on record: EGFR (E746-A750del); 1 uM; read-out: Percent Control (%). The method in brief:
as §1

Assay [9] concerns the target T9, scanMAX Kinase assay panel (Homo sapiens, UniProt P17948).
T9 construct: purchased DiscoverX
The settings on record: FLT1; 1 uM; read-out: Percent Control (%). The method in brief:
as §1

T3 sequence (P00519 whole entry): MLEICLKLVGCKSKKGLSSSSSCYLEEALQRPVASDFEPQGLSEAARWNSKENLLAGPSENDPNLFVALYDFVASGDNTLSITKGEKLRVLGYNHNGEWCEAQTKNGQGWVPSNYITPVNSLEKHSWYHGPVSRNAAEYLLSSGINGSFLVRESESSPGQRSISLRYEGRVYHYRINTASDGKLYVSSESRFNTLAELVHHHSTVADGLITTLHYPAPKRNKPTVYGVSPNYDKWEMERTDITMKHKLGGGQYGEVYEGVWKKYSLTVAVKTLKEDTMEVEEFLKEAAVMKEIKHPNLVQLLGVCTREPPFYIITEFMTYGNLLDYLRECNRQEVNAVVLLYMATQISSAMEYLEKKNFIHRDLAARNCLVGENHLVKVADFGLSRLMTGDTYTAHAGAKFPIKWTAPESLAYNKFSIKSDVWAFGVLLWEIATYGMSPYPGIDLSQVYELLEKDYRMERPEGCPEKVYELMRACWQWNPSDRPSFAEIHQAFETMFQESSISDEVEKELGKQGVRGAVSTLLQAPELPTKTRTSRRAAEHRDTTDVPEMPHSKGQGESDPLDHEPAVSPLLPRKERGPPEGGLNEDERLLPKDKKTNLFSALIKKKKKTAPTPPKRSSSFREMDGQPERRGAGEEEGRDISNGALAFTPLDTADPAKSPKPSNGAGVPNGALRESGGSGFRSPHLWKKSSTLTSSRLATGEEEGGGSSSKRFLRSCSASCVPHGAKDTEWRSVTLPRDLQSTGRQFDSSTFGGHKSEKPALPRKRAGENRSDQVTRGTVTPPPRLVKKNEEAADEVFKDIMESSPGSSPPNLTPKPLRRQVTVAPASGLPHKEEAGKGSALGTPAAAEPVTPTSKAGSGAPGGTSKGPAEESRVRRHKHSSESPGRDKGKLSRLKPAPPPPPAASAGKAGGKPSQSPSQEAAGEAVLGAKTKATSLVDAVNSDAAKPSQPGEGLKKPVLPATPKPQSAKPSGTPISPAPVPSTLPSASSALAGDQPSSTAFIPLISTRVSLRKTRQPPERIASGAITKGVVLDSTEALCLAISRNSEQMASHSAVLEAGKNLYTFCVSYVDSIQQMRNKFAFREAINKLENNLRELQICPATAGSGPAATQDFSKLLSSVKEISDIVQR
T9 sequence (P17948 27-1338): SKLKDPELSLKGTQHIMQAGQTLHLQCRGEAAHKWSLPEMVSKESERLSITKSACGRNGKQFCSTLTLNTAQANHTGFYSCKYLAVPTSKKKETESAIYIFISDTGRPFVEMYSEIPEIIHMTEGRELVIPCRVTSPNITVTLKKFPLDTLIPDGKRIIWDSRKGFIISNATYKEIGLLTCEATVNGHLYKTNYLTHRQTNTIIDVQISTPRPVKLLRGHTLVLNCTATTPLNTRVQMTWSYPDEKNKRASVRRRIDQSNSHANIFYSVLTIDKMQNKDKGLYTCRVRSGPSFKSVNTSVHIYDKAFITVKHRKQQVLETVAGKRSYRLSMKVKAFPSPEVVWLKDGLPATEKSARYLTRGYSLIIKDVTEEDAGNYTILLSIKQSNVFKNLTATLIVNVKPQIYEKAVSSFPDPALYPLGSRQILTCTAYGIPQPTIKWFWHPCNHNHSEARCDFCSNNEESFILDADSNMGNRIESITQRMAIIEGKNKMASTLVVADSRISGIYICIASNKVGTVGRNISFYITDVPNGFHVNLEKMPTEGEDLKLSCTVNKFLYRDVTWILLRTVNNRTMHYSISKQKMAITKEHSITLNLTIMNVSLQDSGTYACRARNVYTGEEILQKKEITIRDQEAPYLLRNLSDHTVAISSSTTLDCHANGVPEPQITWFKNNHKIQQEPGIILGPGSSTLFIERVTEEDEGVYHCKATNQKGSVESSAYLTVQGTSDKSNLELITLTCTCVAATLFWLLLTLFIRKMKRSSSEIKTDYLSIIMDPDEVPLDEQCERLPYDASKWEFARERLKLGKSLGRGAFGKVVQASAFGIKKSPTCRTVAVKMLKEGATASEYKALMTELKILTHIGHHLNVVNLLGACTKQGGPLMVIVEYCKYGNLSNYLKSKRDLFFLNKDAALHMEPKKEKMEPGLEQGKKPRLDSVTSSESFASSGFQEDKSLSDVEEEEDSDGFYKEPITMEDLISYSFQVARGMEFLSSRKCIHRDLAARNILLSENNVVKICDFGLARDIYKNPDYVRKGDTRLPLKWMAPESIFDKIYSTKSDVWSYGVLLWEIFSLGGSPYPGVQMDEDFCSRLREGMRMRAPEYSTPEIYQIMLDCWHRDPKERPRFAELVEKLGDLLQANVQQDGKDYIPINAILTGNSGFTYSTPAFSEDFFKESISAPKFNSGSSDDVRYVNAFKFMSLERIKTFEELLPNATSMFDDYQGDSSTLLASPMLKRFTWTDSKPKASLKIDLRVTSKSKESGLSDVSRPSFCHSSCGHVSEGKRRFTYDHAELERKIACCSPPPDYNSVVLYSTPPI
T5 sequence (Q16513 whole entry): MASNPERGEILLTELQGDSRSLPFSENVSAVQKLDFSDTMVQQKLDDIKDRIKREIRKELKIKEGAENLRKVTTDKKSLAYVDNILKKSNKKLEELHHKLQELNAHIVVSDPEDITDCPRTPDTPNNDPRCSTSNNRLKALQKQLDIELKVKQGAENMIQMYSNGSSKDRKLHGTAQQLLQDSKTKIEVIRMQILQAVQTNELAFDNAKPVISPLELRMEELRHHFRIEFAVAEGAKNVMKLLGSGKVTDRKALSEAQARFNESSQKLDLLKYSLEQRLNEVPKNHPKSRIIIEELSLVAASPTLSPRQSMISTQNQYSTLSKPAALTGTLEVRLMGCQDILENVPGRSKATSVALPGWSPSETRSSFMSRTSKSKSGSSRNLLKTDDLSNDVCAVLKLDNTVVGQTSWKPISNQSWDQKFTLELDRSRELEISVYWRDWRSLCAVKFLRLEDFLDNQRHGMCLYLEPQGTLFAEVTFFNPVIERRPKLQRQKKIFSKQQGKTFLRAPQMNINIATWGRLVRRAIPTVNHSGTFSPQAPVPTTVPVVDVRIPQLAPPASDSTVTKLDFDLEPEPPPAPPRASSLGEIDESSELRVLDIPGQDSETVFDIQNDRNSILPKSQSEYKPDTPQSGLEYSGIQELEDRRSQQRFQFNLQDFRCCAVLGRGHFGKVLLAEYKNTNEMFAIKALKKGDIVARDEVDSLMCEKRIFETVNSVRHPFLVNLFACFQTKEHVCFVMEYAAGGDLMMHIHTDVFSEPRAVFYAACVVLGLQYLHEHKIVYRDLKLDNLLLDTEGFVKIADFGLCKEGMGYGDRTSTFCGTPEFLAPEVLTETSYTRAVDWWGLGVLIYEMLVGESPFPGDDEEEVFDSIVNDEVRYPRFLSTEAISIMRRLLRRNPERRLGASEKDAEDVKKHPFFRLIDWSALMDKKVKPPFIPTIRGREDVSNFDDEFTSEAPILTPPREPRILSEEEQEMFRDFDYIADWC
T1 sequence (P10721 26-976 D816V): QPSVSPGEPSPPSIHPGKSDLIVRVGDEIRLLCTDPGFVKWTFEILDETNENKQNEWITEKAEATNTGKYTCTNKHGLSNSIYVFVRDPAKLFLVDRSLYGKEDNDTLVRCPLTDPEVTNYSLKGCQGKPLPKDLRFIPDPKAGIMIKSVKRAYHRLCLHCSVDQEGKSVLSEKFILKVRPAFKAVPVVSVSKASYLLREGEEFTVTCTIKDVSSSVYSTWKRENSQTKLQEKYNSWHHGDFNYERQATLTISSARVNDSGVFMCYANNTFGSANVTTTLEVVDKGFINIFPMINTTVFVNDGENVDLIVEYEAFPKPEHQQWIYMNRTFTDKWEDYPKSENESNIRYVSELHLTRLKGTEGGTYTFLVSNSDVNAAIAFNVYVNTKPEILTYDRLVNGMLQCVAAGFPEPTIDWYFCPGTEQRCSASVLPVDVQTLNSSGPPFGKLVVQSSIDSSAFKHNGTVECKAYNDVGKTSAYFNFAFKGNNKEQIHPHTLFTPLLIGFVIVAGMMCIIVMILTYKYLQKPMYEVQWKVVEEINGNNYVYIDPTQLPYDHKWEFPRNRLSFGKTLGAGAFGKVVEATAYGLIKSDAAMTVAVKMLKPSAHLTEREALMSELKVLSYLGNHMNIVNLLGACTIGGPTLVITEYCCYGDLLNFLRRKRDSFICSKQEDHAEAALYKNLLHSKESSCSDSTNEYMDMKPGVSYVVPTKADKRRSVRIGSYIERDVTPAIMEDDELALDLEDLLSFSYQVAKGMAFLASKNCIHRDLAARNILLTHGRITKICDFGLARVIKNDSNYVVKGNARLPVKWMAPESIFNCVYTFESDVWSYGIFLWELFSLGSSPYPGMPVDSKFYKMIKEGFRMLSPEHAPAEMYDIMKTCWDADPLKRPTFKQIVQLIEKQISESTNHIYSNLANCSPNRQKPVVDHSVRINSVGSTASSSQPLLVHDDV
T6 sequence (Q9HAZ1 whole entry): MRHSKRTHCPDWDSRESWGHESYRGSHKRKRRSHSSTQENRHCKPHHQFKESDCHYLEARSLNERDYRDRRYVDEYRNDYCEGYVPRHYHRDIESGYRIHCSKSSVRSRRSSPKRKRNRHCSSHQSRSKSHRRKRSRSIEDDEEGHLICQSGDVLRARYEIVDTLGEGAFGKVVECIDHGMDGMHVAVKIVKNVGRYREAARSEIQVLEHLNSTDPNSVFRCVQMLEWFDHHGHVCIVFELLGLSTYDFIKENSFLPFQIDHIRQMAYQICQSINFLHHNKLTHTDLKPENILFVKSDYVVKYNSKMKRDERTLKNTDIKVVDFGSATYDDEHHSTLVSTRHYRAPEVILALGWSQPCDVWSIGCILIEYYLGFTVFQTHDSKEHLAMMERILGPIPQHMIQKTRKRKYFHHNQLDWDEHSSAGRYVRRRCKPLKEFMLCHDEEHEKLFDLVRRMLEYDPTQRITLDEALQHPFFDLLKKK

Consider `Cc1ccc(C(=O)Nc2ccc(CN3CCN(C)CC3)c(C(F)(F)F)c2)cc1C#Cc1cnc2c(Nc3cnn(C)c3)cccn12` [Example 1, 4-methyl-3-((8-((1-methyl-1H-pyrazol-4-yl)amino)imidazo[1,2-a]pyridin-3-yl)ethynyl)-N-(4-((4-methylpiperazin-1-yl)methyl)-3-(trifluoromethyl)phenyl)benzamide], for which the remaining binding at 1 µM in assay [1] stood at 3%; in assay [2] (FLT3-autoinhibited), 46%; in assay [2] (FLT3), 1%; in assay [3] (ABL1-nonphosphorylated), 1%; in [3] (ABL1-phosphorylated) it was 0%; in assay [4], 3%. Moreover, the remaining binding at 1 µM in [5] is 83%; in assay [6], 10%; in assay [7], 54%; in assay [8] it was 0%; in assay [9], 3%.
Turning to `Cc1cn(-c2cc(NC(=O)c3ccc(C)c(C#Cc4cnc5c(Nc6cnn(C)c6)cccn45)c3)cc(C(F)(F)F)c2)cn1` [Example 12, 4-methyl-N-(3-(4-methyl-1H-imidazol-1-yl)-5-(trifluoromethyl)phenyl)-3-((8-((1-methyl-1H-pyrazol-4-yl)amino)imidazo[1,2-a]pyridin-3-yl)ethynyl)benzamide], the remaining binding at 1 µM in assay [1] was determined as 7%; in assay [2] (FLT3-autoinhibited), 100%; in assay [2] (FLT3), 4%; in [3] (ABL1-nonphosphorylated), 1%; in [3] (ABL1-phosphorylated) it was 6%; in [4], 41%. Also, the remaining binding at 1 µM in [5] turned out to be 83%; in assay [6] it was 100%; in assay [7] it was 99%; in assay [8], 8%; in assay [9], 16%.
On to `Cc1ccc(NC(=O)C2(C(=O)Nc3ccc(F)cc3)CC2)cc1C#Cc1cnc2c(Nc3cnn(C(C)C)c3)cccn12` [Example 78], for which the remaining binding at 1 µM came out at 61% in [1]; 100% in assay [2] (FLT3-autoinhibited); 42% in [2] (FLT3); 4% in [3] (ABL1-nonphosphorylated); 56% in assay [3] (ABL1-phosphorylated); 100% in assay [4]. The remaining binding at 1 µM came out at 89% in assay [5]; 100% in assay [6]; 100% in assay [7]; 93% in assay [8]; 84% in [9].
